Reference: patent US20120115754A1, “METHOD FOR DIAGNOSING AND/OR TYPING RENAL CELL CARCINOMA” (priority 2009, published 2012)

Legend:
[1] = test system: normal kidney tissue (NK) lysate, tyrosine kinase activity; assay: Peptide microarray (PamChip) kinase activity profiling of normal kidney lysate with kinase inhibitor added to the lysate; type: biochemical, human
Experimental: (§1) Both normal and tumor kidney tissue were derived from resection material immediately after surgery. These tissues were snap-frozen and were stored at −85° C. The tissues were cut in slices of 10 μm and stored. For protein extraction 6 slices were lysed in 100 μL of Mammalian Protein Extraction Buffer (M-PER), a lysis buffer containing HALT protease and phosphatase inhibitors, for 60 minutes on ice. The protein concentration was determined for each sample and for the analysis on a peptide microarray comprising 144 peptides typically 5 μg of protein was used. […]
(§2) To assess the effect of a kinase inhibitor, the kinase inhibitors sorafinib or sunitinib were added to the lysate before application onto the peptide microarray. During 60 cycles of pumping the lysate reaction mixture through the array, peptide phosphorylation was detected by the fluorescently labelled PY20 anti-phosphotyrosine antibody present in the lysate reaction mixture. Real time data were obtained by measuring fluorescence of the bound anti-phosphotyrosine antibody after each 5 cycles. […] Signals for each spot on the image were quantified. Image quantification and data processing was conducted with dedicated PamGene software (Evolve and Bionavigator). […]

[2] = test system: tumor kidney (RCC) tissue lysate, tyrosine kinase activity; assay: Peptide microarray (PamChip) kinase activity profiling of tumor kidney lysate with kinase inhibitor added to the lysate; type: biochemical, human
Experimental: as §1, §2

CNC(=O)c1cc(Oc2ccc(NC(=O)Nc3ccc(Cl)c(C(F)(F)F)c3)cc2)ccn1 [sorafinib, sorafenib]
phosphorylation pattern compared to the control (DMSO) ([1]; lysate of normal kidney tissue (NK) of one patient, inhibitor pipetted into lysate, FIG. 4 heatmap): decreased phosphorylation pattern | inhibition of peptide phosphorylation, peptides indicated by upward arrows ([1]; normal tissue, on-chip treatment, candidate markers for off-target effects, FIG. 4): show inhibition | phosphorylation pattern compared to the control (DMSO) ([2]; lysate of tumor kidney (RCC) tissue of one patient, inhibitor pipetted into lysate, FIG. 4 heatmap): decreased phosphorylation pattern | inhibition of peptide phosphorylation, peptides indicated by downwards arrows ([2]; tumor tissue, on-chip treatment, in comparison to other peptides, FIG. 4): highly inhibited
